From patent US20240190892A1, “PLASMA KALLIKREIN INHIBITORS” (Merck Sharp & Dohme LLC, priority 2021, published 2024)
pIC50: −log10 of the molar value.

Experiments:
[1] = target: Human plasma kallikrein (Homo sapiens (Human), UniProt P03952); test: Plasma Kallikrein Assay; assay type: biochemical; conditions: purified Human plasma kallikrein 0.5 nM, substrate Acetyl-K-P-R-AFC, pH 7.4; read-out: PKal IC50
Protocol: (§1) The effectiveness of a compound of the present invention as an inhibitor of plasma kallikrein can be determined using a relevant purified serine protease, and an appropriate synthetic substrate. The rate of hydrolysis of the chromogenic or fluorogenic substrate by the relevant serine protease was measured both in the absence and presence of compounds of the present invention. Assays were conducted at rt or at 37° C. […] A decrease in the rate of fluorescence change in the presence of inhibitor is indicative of enzyme inhibition. Such methods are known to one skilled in the art. The results of this assay are expressed as the half-maximal inhibitory concentrations (IC50), or the inhibitory constant, Ki.
Plasma kallikrein determinations were made in 50 mM HEPES buffer at pH 7.4 containing 150 mM NaCl, 5 mM CaCl2, and 0.1% PEG 8000 (polyethylene glycol; Fisher Scientific). Determinations were made using purified Human plasma kallikrein at a final concentration of 0.5 nM (Enzyme Research Laboratories) and the synthetic substrate, Acetyl-K-P-R-AFC (Sigma #C6608) at a concentration of […].
Activity assays were performed by diluting a stock solution of substrate at least tenfold to a final concentration ≤0.2 Km into a solution containing enzyme or enzyme equilibrated with inhibitor. Times required to achieve equilibration between enzyme and inhibitor were determined in control experiments. The reactions were performed under linear progress curve conditions and fluorescence increase measured at 405 Ex/510 Em nm. Values were converted to percent inhibition of the control reaction (after subtracting 100% Inhibition value). IC50 was determined by inflection point from a four parameter logistic curve fit. Ki was calculated using the Cheng Prusoff equation, Ki=IC50/(1+[S]/Km)).

[2] = target: Coagulation factor XIa (Homo sapiens (Human), UniProt P03951); test: Factor XIa Assay; assay type: biochemical; conditions: human factor XIa 0.04 nM, substrate GPR-AFC, 30 min pre-incubation at 25° C., pH 7.4; read-out: FXIa IC50
Sequence of Coagulation factor XIa (P03951 388-625 limits assumed): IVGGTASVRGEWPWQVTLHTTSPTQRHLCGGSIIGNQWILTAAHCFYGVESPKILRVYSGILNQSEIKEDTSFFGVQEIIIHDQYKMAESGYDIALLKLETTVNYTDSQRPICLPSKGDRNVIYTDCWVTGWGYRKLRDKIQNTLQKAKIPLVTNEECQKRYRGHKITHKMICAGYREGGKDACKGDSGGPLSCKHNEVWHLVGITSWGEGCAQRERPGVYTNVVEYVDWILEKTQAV
Sequence of Coagulation factor XIa (P03951 19-387 partner limits assumed): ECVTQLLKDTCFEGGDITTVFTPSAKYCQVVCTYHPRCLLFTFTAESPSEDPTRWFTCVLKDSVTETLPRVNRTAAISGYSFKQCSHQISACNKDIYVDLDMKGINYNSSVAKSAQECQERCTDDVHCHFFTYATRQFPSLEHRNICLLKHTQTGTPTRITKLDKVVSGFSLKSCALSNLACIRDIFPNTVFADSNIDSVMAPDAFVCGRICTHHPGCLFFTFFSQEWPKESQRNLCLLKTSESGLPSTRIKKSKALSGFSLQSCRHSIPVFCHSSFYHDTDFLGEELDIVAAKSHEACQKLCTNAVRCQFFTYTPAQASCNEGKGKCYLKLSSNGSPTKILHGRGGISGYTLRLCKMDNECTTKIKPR
Protocol: as §1, with “Coagulation factor XIa” for “plasma kallikrein”
Compounds were pre-incubated for 30 min at 25° C. with human (0.04 nM) factor XIa in 50 mM HEPES buffer with 150 mM sodium chloride, 5 mM calcium chloride, 0.1% PEG 8000, pH 7.4. factor XIa enzymatic activity was determined by addition of the substrate glycine-proline-arginine-7-amido-4-trifluoromethylcoumarin (GPR-AFC) and measurement of the fluorescence at 400/505 nm after a 60 min incubation at 25° C. The % inhibition for each data point was calculated from the data and analyzed using the log (inhibitor) vs. response four parameters equation to determine the half-maximal inhibitory concentrations (IC50). The IC50 were converted to equilibrium inhibitory constants (Ki) using the Cheng-Prusoff equation.

Sequence of Human plasma kallikrein (P03952 391-638 limits assumed): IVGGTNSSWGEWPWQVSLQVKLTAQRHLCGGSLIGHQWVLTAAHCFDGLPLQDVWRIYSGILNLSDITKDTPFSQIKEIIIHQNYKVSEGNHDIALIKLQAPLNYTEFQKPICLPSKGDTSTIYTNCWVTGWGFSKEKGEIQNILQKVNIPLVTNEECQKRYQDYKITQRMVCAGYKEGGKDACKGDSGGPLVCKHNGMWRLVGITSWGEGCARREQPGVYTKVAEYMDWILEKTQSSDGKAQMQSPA
Sequence of Human plasma kallikrein (P03952 20-390 partner limits assumed): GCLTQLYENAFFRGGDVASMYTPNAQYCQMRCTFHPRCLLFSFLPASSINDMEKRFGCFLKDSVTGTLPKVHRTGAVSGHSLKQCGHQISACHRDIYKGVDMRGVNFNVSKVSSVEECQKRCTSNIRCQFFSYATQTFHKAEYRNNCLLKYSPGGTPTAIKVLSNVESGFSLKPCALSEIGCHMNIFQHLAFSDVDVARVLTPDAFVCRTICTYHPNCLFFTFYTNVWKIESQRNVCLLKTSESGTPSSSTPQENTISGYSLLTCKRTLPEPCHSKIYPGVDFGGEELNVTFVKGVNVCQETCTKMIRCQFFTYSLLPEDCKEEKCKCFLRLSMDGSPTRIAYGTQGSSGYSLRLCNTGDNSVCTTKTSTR

Row | Structure (SMILES) | pIC50 [1] | pIC50 [2]
1 | Cc1cnn(Cc2ccc(CNC(=O)c3cc(N4CC[C@]5(C4)OC(=O)Nc4ccc(Cl)c(F)c45)ncn3)cc2)c1 [Example 19, (S)-6-(6-Chloro-5-fluoro-2-oxo-1,2-dihydrospiro[benzo[d][1,3]oxazine-4,3′-pyrrolidin]-1′-yl)-N-(4-((4-methyl-1H-pyrazol-1-yl)methyl)benzyl)pyrimidine-4-carboxamide] | 7.59 | 5.00
2 | O=C1Nc2ccc(Cl)c(F)c2[C@]2(CCN(c3cncc(C(=O)NCc4ccc(N5CC(O)(C(F)(F)F)C5)nc4)n3)C2)O1 [Example 36, (S)-6-(6-Chloro-5-fluoro-2-oxo-1,2-dihydrospiro[benzo[d][1,3]oxazine-4,3′-pyrrolidin]-1′-yl)-N-((6-(3-hydroxy-3-(trifluoromethyl)azetidin-1-yl)pyridin-3-yl)methyl)pyrazine-2-carboxamide] | 7.36 | 5.00
3 | CCC(NCc1ccc(CNC(=O)c2cnnc(N3CC[C@]4(C3)OC(=O)Nc3ccc(Cl)c(F)c34)c2)cc1)C(F)(F)F (stereo partly drawn) [Example 46, (S)-6-(6-Chloro-5-fluoro-2-oxo-1,2-dihydrospiro[benzo[d][1,3]oxazine-4,3′-pyrrolidin]-1′-yl)-N-(4-(((1,1,1-trifluorobutan-2-yl)amino)methyl)benzyl) pyridazine-4-carboxamide] | 7.42 | 5.00
4 | Nc1nccc2cc(CNC(=O)c3cncc(N4CC[C@]5(C4)OC(=O)Nc4ccc(Cl)c(F)c45)n3)ccc12 [Example 32, (S)-N-((1-Aminoisoquinolin-6-yl)methyl)-6-(6-chloro-5-fluoro-2-oxo-1,2-dihydrospiro[benzo[d][1,3]oxazine-4,3′-pyrrolidin]-1′-yl)pyrazine-2-carboxamide] | 7.72 | 5.00
5 | O=C1Nc2ccc(Cl)c(F)c2[C@]2(CCN(c3cncc(C(=O)NCc4ccc(N5CC[C@H](F)C5)nc4)n3)C2)O1 [Example 38, (S)-6-(6-Chloro-5-fluoro-2-oxo-1,2-dihydrospiro[benzo[d][1,3]oxazine-4,3′-pyrrolidin]-1′-yl)-N-((6-((S)-3-fluoropyrrolidin-1-yl)pyridin-3-yl)methyl)pyrazine-2-carboxamide] | 7.45 | 5.00

These reach a higher pIC50 [1]. Values come first.

Row | pIC50 [1] | pIC50 [2] | Structure (SMILES)
6 | 7.84 | 5.00 | COCC1CN(c2ccc(CNC(=O)c3cnnc(N4CC[C@]5(C4)OC(=O)Nc4ccc(Cl)c(F)c45)c3)cn2)C1 [Example 27, (S)-6-(6-Chloro-5-fluoro-2-oxo-1,2-dihydrospiro[benzo[d][1,3]oxazine-4,3′-pyrrolidin]-1′-yl)-N-((6-(3-(methoxymethyl)azetidin-1-yl)pyridin-3-yl)methyl)pyridazine-4-carboxamide]
7 | 8.30 | 5.00 | O=C1Nc2ccc(Cl)c(F)c2[C@]2(CCN(c3cc(C(=O)NCc4ccc(N5CCOCC5)nc4)cnn3)C2)O1 [Example 29, (S)-6-(6-Chloro-5-fluoro-2-oxo-1,2-dihydrospiro[benzo[d][1,3]oxazine-4,3′-pyrrolidin]-1′-yl)-N-((6-morpholinopyridin-3-yl)methyl)pyridazine-4-carboxamide]
8 | 8.60 | 5.00 | CN1CCCC1c1ccc(CNC(=O)c2cnnc(N3CC[C@]4(C3)OC(=O)Nc3ccc(Cl)c(F)c34)c2)cc1 (stereo in doubt) [Example 10, (S)-6-(6-Chloro-5-fluoro-2-oxo-1,2-dihydrospiro[benzo[d][1,3]oxazine-4,3′-pyrrolidin]-1′-yl)-N-(4-(1-methylpyrrolidin-2-yl)benzyl)pyridazine-4-carboxamide]
9 | 8.77 | 5.00 | CN1CCN(c2ccc(CNC(=O)c3cncc(N4CC[C@]5(C4)OC(=O)Nc4ccc(Cl)c(F)c45)n3)cn2)CC1 [Example 43, (S)-6-(6-Chloro-5-fluoro-2-oxo-1,2-dihydrospiro[benzo[d][1,3]oxazine-4,3′-pyrrolidin]-1′-yl)-N-((6-(4-methylpiperazin-1-yl)pyridin-3-yl)methyl)pyrazine-2-carboxamide]
